Experimental findings from patent US6969449B2, “Multi-well plate and electrode assemblies for ion channel assays” (Vertex Pharmaceuticals (San Diego) LLC, priority 2000, dated 2005) are described below.

Test [1] deals with IRK1 channel (Rattus norvegicus, UniProt Q64273).
Test [2] has as its system HL5 cells. It counts as cell-based.
The test system of test [3] is wild-type HEK-293 cells.

IRK1 channel, sequence (Q64273 whole entry): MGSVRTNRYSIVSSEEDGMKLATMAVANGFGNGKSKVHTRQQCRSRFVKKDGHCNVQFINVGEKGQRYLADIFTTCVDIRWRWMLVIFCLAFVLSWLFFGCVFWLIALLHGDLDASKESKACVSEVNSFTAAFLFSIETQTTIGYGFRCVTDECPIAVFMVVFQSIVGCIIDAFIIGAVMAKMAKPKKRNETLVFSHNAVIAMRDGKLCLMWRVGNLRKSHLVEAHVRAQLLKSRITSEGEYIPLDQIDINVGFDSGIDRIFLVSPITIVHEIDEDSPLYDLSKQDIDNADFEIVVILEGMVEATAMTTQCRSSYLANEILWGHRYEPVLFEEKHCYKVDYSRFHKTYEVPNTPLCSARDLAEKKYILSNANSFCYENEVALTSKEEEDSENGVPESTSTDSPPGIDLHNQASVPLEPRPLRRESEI

As to `[Ba+2].[Cl-].[Cl-]` [barium chloride], the “voltage change during stimulation with barium block” value in test [1] is “no detectable voltage change”. As for `NC1=N[C@H](O)[C@H]2[C@H]3O[C@]4(O)O[C@@H]([C@@H](O)[C@@]2(N1)[C@@H]4O)[C@]3(O)CO` [TTX, tetrodotoxin], in test [2], the “block of the positive response” value is “partially blocks the positive response” and the “effect on sustained signal above 50 V/cm” value is “unaffected”.

`CC[N+](CC)(CC)CC` [TEA, Tetraethylammonium]: the “block of response to electrical stimulation” value in test [3] is “partially blocks the response”.
